Measured values published in ChEMBL document CHEMBL5038634, “Virtual Screening Directly Identifies New Fragment-Sized Inhibitors of Carboxylesterase Notum with Nanomolar Activity” (J Med Chem, 2022).
Converted amounts (≈) assume the structure as drawn. “And” between values parts separate entries of the source, which are not always exact repeats. Equal entries are not always repeated.

Tests used:
[1] = target: T1, Palmitoleoyl-protein carboxylesterase NOTUM (Homo sapiens, UniProt Q6P988, C330S); assay: Inhibition of human Notum (81 to 451 Cys330Ser) using OPTS as substrate incubated for 40 mins by fluorescence based assay
[2] = target: T1, Palmitoleoyl-protein carboxylesterase NOTUM; assay: Inhibition of Notum (81 to 451 Cys330Ser) in HEK293T cells expressing TCF-LEF assessed as activation of Wnt signaling using WNT3A as substrate incubated for […] by Steady-Glo luciferase assay; format: cell-based
HEK-293T [3] = assay: Cytotoxicity against HEK293T cells expressing TCF-LEF assessed as adverse effects on cell health by Cell Titre Glo assay; format: toxicity, cell-based; conditions: human
HEK-293T [4] = assay: Cytotoxicity against HEK293T cells expressing TCF-LEF assessed as effect on total cell number by GFP based assay; format: toxicity; conditions: human
[5] = C0 in C57BL/6J mouse at 0.4 mg/kg, iv measured at 0.08 to 24 hrs by LC-MS/MS analysis; format: ADME, organism-based; conditions: in vivo, time 0.08-24 hrs
[6] = Half life in C57BL/6J mouse at 0.4 mg/kg, iv measured at 0.08 to 24 hrs by LC-MS/MS analysis; format: ADME, organism-based; conditions: in vivo, time 0.08-24 hrs
[7] = Volume of distribution at steady state in C57BL/6J mouse at 0.4 mg/kg, iv measured at 0.08 to 24 hrs by LC-MS/MS analysis; format: ADME, organism-based; conditions: in vivo, time 0.08-24 hrs, read-out: Vdss
[8] = Clearance in C57BL/6J mouse at 0.4 mg/kg, iv measured at 0.08 to 24 hrs by LC-MS/MS analysis; format: ADME, organism-based; conditions: in vivo, time 0.08-24 hrs
[9] = AUC (infinity) in C57BL/6J mouse at 0.4 mg/kg, iv measured at 0.08 to 24 hrs by LC-MS/MS analysis; format: ADME, organism-based; design: route intravenous, time upper 24 hrs, time lower 0.08 hrs, dose 0.4 mg/kg; conditions: in vivo
[10] = AUC (all) in C57BL/6J mouse at 0.4 mg/kg, iv measured at 0.08 to 24 hrs by LC-MS/MS analysis; format: ADME, organism-based; design: route intravenous, time 0.08-24 hrs, dose 0.4 mg/kg; conditions: in vivo
[11] = Drug concentration in C57BL/6J mouse brain at 0.4 mg/kg, iv measured at 1 hr by LC-MS/MS analysis; format: ADME, organism-based; conditions: read-out: Drug uptake
[12] = Drug concentration in C57BL/6J mouse brain at 0.4 mg/kg, iv measured at 4 hrs by LC-MS/MS analysis; format: ADME, organism-based; conditions: read-out: Drug uptake
[13] = Apparent permeability from apical to basolateral side in dog MDCKII-MDR1 cells at 10 uM incubated upto 120 mins by LC-MS/MS analysis; format: ADME, cell-based, Canis lupus familiaris; conditions: MDCK-MDR1
[14] = Aqueous solubility of the compound at pH 7.4 in pION buffer at 500uM incubated for 18 hrs by spectrophotometry analysis; format: physicochemical
[15] = Intrinsic clearance in mouse liver microsome at 1 uM incubated upto 60 mins in presence of NADPH by LC-MS/MS analysis; format: ADME; conditions: liver microsomes, read-out: CLH
[16] = Plasma protein binding in CD-1 mouse assessed as unbound fraction at 2 uM by Equilibrium dialysis method; format: ADME, cell-free
[17] = Acidic dissociation constant, pKa of the compound at pH 7.4; format: physicochemical
[18] = Plasma protein binding in CD-1 mouse at 2 uM by Equilibrium dialysis method; format: ADME, cell-free; conditions: read-out: PPB (converted)
[19] = Apparent permeability from basolateral to apical side in dog MDCKII-MDR1 cells at 10 uM incubated upto 120 mins by LC-MS/MS analysis; format: ADME, cell-based, Canis lupus familiaris; conditions: MDCK-MDR1
[20] = Stability in mouse liver microsome assessed as half life at 1 uM incubated upto 60 mins in presence of NADPH by LC-MS/MS analysis; format: ADME; conditions: liver microsomes
[21] = Apparent permeability in MDCKII-MDR1 cells assessed as compound recovery at 10 uM incubated upto 120 mins by LC-MS/MS analysis; format: ADME, cell-based, Canis lupus familiaris; conditions: dog, MDCK-MDR1, read-out: Activity

SMILES	IC50 [1]	EC50 [2] [nM]	further results
O=c1[nH]nc2ccc(Sc3ccc(C(F)(F)F)cc3)nn12	28 nM	300	
O=c1[nH]nc2ccc(Sc3ccc(Cl)c(Cl)c3)nn12	5 nM	110	Activity (HEK-293T [3]): Non-Toxic; Activity (HEK-293T [4]): Non-Toxic; C0 [5]: 1580 ng/mL; half-life [6]: 42 min; Vd [7]: 0.7 L/kg; clearance [8]: 17.8 mL/min/kg; AUC(0-inf) [9]: 370 ng·h/mL; AUC [10]: 360 ng·h/mL; concentration at 1 h [11]: < 5 ng/mL; concentration at 4 h [12]: < 5 ng/mL
Cc1ccc(Sc2ccc3n[nH]c(=O)n3n2)nc1	3600 nM		
Cc1ccc(/C=C2/N=C(c3cccc(Cl)c3Cl)OC2=O)o1	22 nM		
O=c1[nH]nc2ccc(Sc3cccc(C(F)(F)F)n3)nn12	410 nM	> 10000	
O=c1[nH]nc2ccc(Sc3ccccc3F)nn12	87 nM	1100	
O=c1[nH]nc2ccc(Sc3ccccc3C(F)(F)F)nn12	89 nM	930	
COc1ccc(/C=C2/N=C(c3cccc(Cl)c3Cl)OC2=O)c(OC)c1	> 10000 nM		
O=c1[nH]nc2ccc(Sc3cccc(F)c3)nn12	30 nM	260	
Cc1cccc(Sc2ccc3n[nH]c(=O)n3n2)n1	650 nM	> 10000	
Cc1cccc(Sc2ccc3n[nH]c(=O)n3n2)c1	9 nM	240	
O=c1[nH]nc2ccc(Sc3ccc(F)c(F)c3)nn12	120 nM	1100	
Cc1ccc(Sc2ccc3n[nH]c(=O)n3n2)cc1C	7 nM	130	
O=C1OC(c2cccc(Cl)c2Cl)=N/C1=C/c1ccco1	12 nM		
Cc1ccccc1COc1nn2c(=O)c(C)nnc2s1	320 nM and 1600 nM		
O=c1[nH]nc2ccc(Sc3ccccc3Cl)nn12	30 nM	720	
O=c1[nH]nc2ccc(Sc3cccc(OC(F)(F)F)c3)nn12	4 nM	34	Activity (HEK-293T [3]): Non-Toxic; Activity (HEK-293T [4]): Non-Toxic; C0 [5]: 1900 ng/mL; half-life [6]: 6 min; Vd [7]: 0.2 L/kg; clearance [8]: 24.8 mL/min/kg; AUC(0-inf) [9]: 270 ng·h/mL; AUC [10]: 270 ng·h/mL; concentration at 1 h [11]: < 5 ng/mL; concentration at 4 h [12]: < 5 ng/mL
O=c1[nH]nc2ccc(Sc3cccc(Cl)c3)nn12	6 nM	88	Activity (HEK-293T [3]): Non-Toxic; Activity (HEK-293T [4]): Non-Toxic; C0 [5]: 1750 ng/mL; half-life [6]: 18 min; Vd [7]: 0.3 L/kg; clearance [8]: 22.2 mL/min/kg; AUC(0-inf) [9]: 300 ng·h/mL; AUC [10]: 300 ng·h/mL; concentration at 1 h [11]: < 5 ng/mL; concentration at 4 h [12]: < 5 ng/mL
O=c1[nH]nc2ccc(Sc3ccc(Cl)cc3)nn12	21 nM	310	
Cc1ccc(Sc2ccc3n[nH]c(=O)n3n2)cc1	27 nM	86	Papp A→B at 2 h, 10 µM [13]: 52 ×10⁻⁶ cm/s; solubility at 18 h, 500 µM [14]: 32 µg/mL and 120 µM; microsomal CLint at 1 µM [15]: 21 µL/min/mg; Activity (HEK-293T [3]): Non-Toxic; Activity (HEK-293T [4]): Non-Toxic; fraction unbound at 2 µM [16]: 0.011; pKa [17]: 7.9; fraction unbound at 2 µM [18]: 0.012; C0 [5]: 2620 ng/mL; half-life [6]: 36 min; Vd [7]: 0.1 L/kg; clearance [8]: 2.8 mL/min/kg; AUC(0-inf) [9]: 2350 ng·h/mL; AUC [10]: 2330 ng·h/mL; concentration at 1 h [11]: < 5 ng/mL; concentration at 4 h [12]: < 5 ng/mL; Papp B→A at 2 h, 10 µM [19]: 43 ×10⁻⁶ cm/s
Cc1ccc(/C=C2\N=C(c3ccc(C)c(C)c3)OC2=O)o1	17 nM		solubility at 18 h, 500 µM [14]: 0.31 µg/mL (≈ 1.1 µM); microsomal CLint at 1 µM [15]: 1.9 µL/min/mg; half-life at 1 µM [20]: 360 min; recovery at 2 h, 10 µM [21]: < 25%
O=c1[nH]nc2ccc(Sc3ccccc3)nn12	150 nM		
Cc1ccc(Oc2ccc3n[nH]c(=O)n3n2)cc1	3100 nM		
O=C1OC(c2cccc3ccccc23)=N/C1=C/c1ccco1	100 nM		
Cc1ccccc1Sc1ccc2n[nH]c(=O)n2n1	50 nM	300	
Cc1cc(C)cc(Sc2ccc3n[nH]c(=O)n3n2)c1	47 nM		
COC(=O)CCC(=O)N1CCc2ccccc21	90 nM		
O=C1OC(c2ccc(Cl)cc2Cl)=N/C1=C/c1ccco1	48 nM		

SMILES	IC50 [1]	EC50 [2] [nM]	further results
Cc1ccc(S(=O)(=O)c2ccc3n[nH]c(=O)n3n2)cc1	> 10000 nM		
COc1cccc(Sc2ccc3n[nH]c(=O)n3n2)c1	15 nM	140	
Cc1ccc(Sc2ccc3nn(C)c(=O)n3n2)cc1	> 10000 nM		
Cc1ccc(C2=N/C(=C/c3ccccc3)C(=O)O2)cc1C	200 nM		
O=c1[nH]nc2ccc(Sc3cccc(Cl)c3Cl)nn12	13 nM	150	
Cc1ccc(Nc2ccc3n[nH]c(=O)n3n2)cc1	690 nM		
O=c1[nH]nc2ccc(Sc3ncccn3)nn12	> 10000 nM		
O=c1[nH]nc2ccc(Sc3ccc(F)cc3)nn12	94 nM	540	
O=c1[nH]nc2ccc(Sc3ccc(Cl)cc3Cl)nn12	20 nM	380	
Cc1ccc(/C=C2/N=C(c3ccc(C)c(C)c3)OC2=O)o1	8.5 nM		
O=c1[nH]nc2ccc(Sc3cccc(C(F)(F)F)c3)nn12	17 nM	190	
O=c1[nH]nc2ccc(Sc3cccc(F)c3F)nn12	63 nM		
Cc1ccc([S+]([O-])c2ccc3n[nH]c(=O)n3n2)cc1 (stereo unspecified)	> 10000 nM		
O=C1OC(c2cccc(Cl)c2Cl)=N/C1=C/c1cccs1	54 nM		
CC(C)Oc1cccc(Sc2ccc3n[nH]c(=O)n3n2)c1	25 nM	260	
CSc1cccc(Sc2ccc3n[nH]c(=O)n3n2)c1	24 nM	380	
Cc1cccc(Sc2ccc3n[nH]c(=O)n3n2)c1C	14 nM		
Cc1ccnc(Sc2ccc3n[nH]c(=O)n3n2)c1	2700 nM		
Cc1ccc(Sc2nn3c(=O)[nH]nc3c(C)c2C)cc1	> 10000 nM		
Cc1ccc(C2=N/C(=C/c3cccs3)C(=O)O2)cc1C	24 nM		
CCOc1cccc(Sc2ccc3n[nH]c(=O)n3n2)c1	20 nM	150	
Cc1ccc(Sc2ccc3n[nH]c(=O)n3n2)c(C)c1	27 nM	300	
Cc1ccc(Cc2ccc3n[nH]c(=O)n3n2)cc1	240 nM		
O=C1OC(c2ccc(Cl)cc2Cl)=N/C1=C\c1ccco1	14 nM		
Cc1ccc(N(C)c2ccc3n[nH]c(=O)n3n2)cc1	990 nM		
Cc1ccc(Sc2cc(C)c3n[nH]c(=O)n3n2)cc1	70 nM		
O=c1[nH]nc2ccc(Sc3ccncn3)nn12	> 10000 nM		
